Tests used:
[1] = CBS dynamic cycling of BLES with added (oxidized) phospholipids; assay type: physicochemical, bovine; settings: non-oxidized lipid in BLES containing cholesterol, exposure to ambient air
Excerpt: In this Example, the role of oxidized polyunsaturated phospholipids in causing cholesterol-dependent surfactant dysfunction was studied. Oxidation of surfactant by the Fenton-like reaction or in the presence of ROS in the inflamed lung results in the formation of lipid-peroxides with polyunsaturated phospholipids the principal target. […] This introduction of a hydrophilic group in the formerly hydrophobic region will disrupt lipid packing. […] This is consistent with peroxidized PLPC, CL and other polyunsaturated phospholipids present in surfactant causing dysfunction together with cholesterol. […]
To ensure accurate mixing, additional lipids were added to lipid extracts of BLES or oxBLES as organic solutions. […] Phospholipid concentration was assessed using a phosphate assay (Gentaur Molecular Products, Kampenhout, Belgium) after liberation of free phosphate (Duck-Chong C G (1979) A rapid sensitive method for determining phospholipid phosphorus involving digestion with magnesium nitrate. Lipids 14: 492-497). […] BLES contained 2.60% cholesterol (w/w phospholipids) as determined using an enzymatic assay for cholesterol (Amplex Red Cholesterol Assay, Invitrogen, Eugene, Oreg., USA). hSP-A was added to dried films when indicated to a final concentration of 5% (w/w phospholipids). […]

[2] = captive bubble surfactometer (CBS), oxidized BLES with added cholesterol; assay type: physicochemical, cattle; settings: MβCD (20 mmol) in the aqueous phase
Protocol: In a model study, 0, 5 and 10 weight percent cholesterol was added to a ROS-exposed cattle lipid surfactant extract as an example of how even a normal (physiological) amount of cholesterol renders surfactant exposed to ROS and its derivatives dysfunctional; the function of the surfactant model was determined in a captive bubble surfactometer (CBS).
Surface activity of surfactant was determined with a computer-controlled captive bubble surfactometer (CBS) as described in detail by Gunasekara et al. (Gunasekara L, Schoel W M, Schürch S & Amrein M W (2008) A comparative study of mechanisms of surfactant inhibition. BBA—Biomembranes 1778: 433-444), with two important changes: 1) A transparent capillary was used to deposit a ˜1.0 μL bolus of 27 mg/mL surfactant near the air-buffer interface. The quantity and concentration of surfactant were chosen to minimize effects caused by insufficient surfactant or bulk phase adsorption. This amount of native BLES reliably reproduces minimum and maximum surface tensions as measured in situ at functional reserve capacity and total lung capacity (<1 mN/m and ˜30 mN/m, respectively) (Bachofen H & Schtirch S (2001) Alveolar surface forces and lung architecture. Comparative Biochemistry and Physiology—Part A: Molecular & Integrative Physiology 129: 183-193). […]

[3] = murine model of acute lung injury (acid injury), MβCD aerosol, surfactant function; assay type: in vivo, mice
Excerpt: In this study, a murine model of acute lung injury (ALI), the earliest phase of ARDS, was created by acid injury of the lung according to published procedures (Allen, G. B. et al. Neither fibrin nor plasminogen activator inhibitor-1 deficiency protects lung function in a mouse model of acute lung injury. American Journal of Physiology-Lung Cellular and Molecular Physiology 296, L277-L285 (2009)) and analyzed with respect to lung mechanics, oxygenation, lung histology, lung ultrastructure, surfactant function and composition (FIGS. 3A-E). Elastance (or its inverse, compliance) and pressure-volume curves are commonly used to assess lung function in ALI/ARDS (JONSON, B. et al. Pressure-volume curves and compliance in acute lung injury. American journal of respiratory and critical care medicine 159, 1172-1178 (1999)).

surface tension [2] | Compound | surfactant function over time [1] | surfactant function in vivo ([3]; in the lung, given as an aerosol) | minimum surface tension of surfactant ([3]; injured mice treated with an MβCD-aerosol)
 | CCCCC/C=C\C/C=C\CCCCCCCC(=O)OC[C@H](COP(=O)(O)OCC(O)COP(=O)(O)OC[C@H](COC(=O)CCCCCCC/C=C\C/C=C\CCCCC)OC(=O)CCCCCCC/C=C\C/C=C\CCCCC)OC(=O)CCCCCCC/C=C\C/C=C\CCCCC (some centres unmarked) [CL, 1′,3′-Bis[1,2-dilinoleoyl-sn-glycero-3-phospho]-sn-glycerol] | became dysfunctional after several hours |  | 
 | CCCCC/C=C\C/C=C\CCCCCCCC(=O)O[C@H](COC(=O)CCCCCCCCCCCCCCC)COP(=O)([O-])OCC[N+](C)(C)C [PLPC, 1-palmitoyl-2-linoleoyl-sn-glycero-3-phosphocholine] | became dysfunctional after several hours |  | 
almost zero | methyl-β-cyclodextrin [MβCD] |  | can restore surfactant function | < 10 mN/m

From patent US20130029937A1, “TREATMENT OF SURFACTANTS” (SOLAEROMED INC., priority 2007, published 2013)
